The numbers were not newly measured in patent US4634704A, “Anti-allergic five membered heterocyclic ring containing N-(bicyclic heterocycyl)-4-piperidinamines” (Janssen Pharmaceutica, N.V., priority 1984, dated 1987), which cites them from elsewhere.

The series relates to effects of serotonin in the gastric lesion test. Conditions: rats injected with compound 48/80; known serotonin-antagonists; cited from earlier work.
As to `CN1C[C@H](CNC(=O)OCc2ccccc2)C[C@@H]2c3cccc4c3c(cn4C)C[C@H]21` [metergoline], the “prevention of cyanosis of ears and extremities, lesions in the glandular area of the stomach and abnormal gastric distension” value (“prevention” below) was “prevent completely”.
Regarding `O=C(CCCN1CCC2(CC1)C(=O)NCN2c1ccccc1)c1ccc(F)cc1` [spiperone], the “prevention” value is “prevent completely”.
As to `CN1CCN2c3ccccc3Cc3ccccc3C2C1` (stereo not drawn) [mianserin], the “prevention” value was “prevent completely”.
For the molecule `CC[C@@H](CO)NC(=O)[C@@H]1C=C2c3cccc4c3c(cn4C)C[C@H]2N(C)C1` [methysergide], the “prevention” value is given as “prevent completely”.
For the molecule `NC(=O)C1(N2CCCCC2)CCN(CCCC(=O)c2ccc(F)cc2)CC1` [pipamperone], the “prevention” value was “prevent completely”.
For the molecule `CN1CCC(=C2c3ccccc3CCc3sccc32)CC1` [pizotifen], the “prevention” value was “prevent completely”.
